Reference: PubChem BioAssay (NCI)
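A five-concentration, 48-hour dose response in 96-well plates underlies each endpoint, interpolated linearly between surrounding concentrations. GI50 = concentration required for 50% inhibition of growth. TGI is the concentration that stops growth completely.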

Tests used:
Assay in all cases: growth of human tumour cells (NCI), 48 h
SNB-19 CNS = test system: SNB-19 CNS
HCC-2998 colon = test system: HCC-2998 colon
DMS 273 small cell lung = test system: DMS 273 small cell lung
DLD-1 colon = test system: DLD-1 colon
HT29 colon = test system: HT29 colon
SK-MEL-2 melanoma = test system: SK-MEL-2 melanoma
M14 melanoma = test system: M14 melanoma
A498 renal = test system: A498 renal
HCT-116 colon = test system: HCT-116 colon
MDA-MB-231 breast = test system: MDA-MB-231 breast

SMILES: COc1cc(/C=C(\NC(=O)c2ccccc2)c2nc3ncncc3[nH]2)cc(OC)c1OC
- TGI (SNB-19 CNS): > 100 µM
- TGI (HCC-2998 colon): > 100 µM
- TGI (DMS 273 small cell lung): > 100 µM
- TGI (DLD-1 colon): > 100 µM
- TGI (HT29 colon): > 100 µM
- TGI (SK-MEL-2 melanoma): > 100 µM
- TGI (M14 melanoma): > 100 µM

SMILES: NS(=O)(=O)c1ccc(NC(=O)C2C(=O)C(=O)N(c3ccc(S(N)(=O)=O)cc3)C2=O)cc1 (stereo unspecified)
- TGI (SNB-19 CNS): > 100 µM
- TGI (HCC-2998 colon): > 100 µM
- TGI (DMS 273 small cell lung): > 100 µM
- TGI (DLD-1 colon): > 100 µM
- TGI (HT29 colon): > 100 µM
- TGI (SK-MEL-2 melanoma): > 100 µM
- TGI (A498 renal): > 100 µM
- TGI (HCT-116 colon): > 100 µM
- TGI (M14 melanoma): > 100 µM

SMILES: CC(C)COC1Sc2ccccc2S1
- TGI (SNB-19 CNS): 32.8 µM
- TGI (HCC-2998 colon): 45.3 µM
- TGI (DMS 273 small cell lung): 43.1 µM
- TGI (DLD-1 colon): 35.1 µM
- TGI (HT29 colon): 36.6 µM
- TGI (M14 melanoma): 52.4 µM

SMILES: O=C(Nc1ccc(Cl)cc1C(=O)O)c1ccc([N+](=O)[O-])cc1
- TGI (SNB-19 CNS): > 100 µM
- TGI (HCC-2998 colon): 39.6 µM
- TGI (DMS 273 small cell lung): 67.1 µM
- TGI (DLD-1 colon): 30.9 µM
- TGI (HT29 colon): 40.7 µM
- TGI (SK-MEL-2 melanoma): 16.9 µM
- TGI (A498 renal): 27.2 µM
- TGI (HCT-116 colon): 36.9 µM
- TGI (M14 melanoma): 60.8 µM

SMILES: CCCCNC(=S)OCCC(C)CCCC(C)C (stereo unspecified)
- TGI (SNB-19 CNS): > 100 µM
- TGI (HCC-2998 colon): > 100 µM
- TGI (DMS 273 small cell lung): > 100 µM
- TGI (DLD-1 colon): > 100 µM
- TGI (HT29 colon): > 100 µM
- TGI (SK-MEL-2 melanoma): > 100 µM
- TGI (A498 renal): > 100 µM
- TGI (HCT-116 colon): > 100 µM
- TGI (M14 melanoma): > 100 µM

SMILES: N#CC1(C#N)C=CC(=C2OCC3CCCN23)C=C1 (stereo unspecified)
- TGI (SNB-19 CNS): > 100 µM
- TGI (HCC-2998 colon): > 100 µM
- TGI (DMS 273 small cell lung): > 100 µM
- TGI (DLD-1 colon): > 100 µM
- TGI (HT29 colon): > 100 µM
- TGI (SK-MEL-2 melanoma): > 100 µM
- TGI (A498 renal): > 100 µM
- TGI (HCT-116 colon): > 100 µM
- TGI (M14 melanoma): > 100 µM

SMILES: O=C1C=C2CCCC2C(C(=O)O)(C(=O)O)C1 (stereo unspecified)
- TGI (SNB-19 CNS): > 100 µM
- TGI (HCC-2998 colon): > 100 µM
- TGI (DMS 273 small cell lung): > 100 µM
- TGI (DLD-1 colon): > 100 µM
- TGI (HT29 colon): > 100 µM
- TGI (SK-MEL-2 melanoma): > 100 µM
- TGI (A498 renal): > 100 µM
- TGI (HCT-116 colon): > 100 µM
- TGI (M14 melanoma): > 100 µM

SMILES: CC1=CP(=O)(c2ccccc2)C=C(C)C1=C(Cl)Cl (stereo unspecified)
- TGI (SNB-19 CNS): 32.8 µM
- TGI (HCC-2998 colon): 29.8 µM
- TGI (DMS 273 small cell lung): 9.22 µM
- TGI (DLD-1 colon): 27.1 µM
- TGI (HT29 colon): 13.1 µM
- TGI (HCT-116 colon): 10.1 µM
- TGI (M14 melanoma): 17.9 µM

SMILES: Cn1c(=O)c(Oc2ccc(F)cc2F)cc2cnc(N[C@@H]3CCOC3)nc21
- GI50 (SNB-19 CNS): > 25 µM
- TGI (SNB-19 CNS): > 25 µM
- GI50 (HCC-2998 colon): > 25 µM
- TGI (HCC-2998 colon): > 25 µM
- GI50 (HT29 colon): > 25 µM
- TGI (HT29 colon): > 25 µM
- GI50 (SK-MEL-2 melanoma): > 25 µM
- TGI (SK-MEL-2 melanoma): > 25 µM
- GI50 (MDA-MB-231 breast): > 25 µM
- TGI (MDA-MB-231 breast): > 25 µM
- GI50 (A498 renal): > 20.4 µM
- TGI (A498 renal): > 25 µM
- GI50 (HCT-116 colon): > 25 µM
- TGI (HCT-116 colon): > 25 µM
- GI50 (M14 melanoma): > 25 µM
- TGI (M14 melanoma): > 25 µM

SMILES: O=C(CC1C(=O)Nc2ccccc2S1(=O)=O)Nc1ccc(Cl)cc1 (stereo unspecified)
- TGI (SNB-19 CNS): 57.1 µM
- TGI (HCC-2998 colon): 39.6 µM
- TGI (DMS 273 small cell lung): 45.6 µM
- TGI (DLD-1 colon): > 100 µM
- TGI (HT29 colon): > 100 µM
- TGI (SK-MEL-2 melanoma): 65.3 µM
- TGI (A498 renal): > 100 µM
- TGI (HCT-116 colon): > 100 µM
- TGI (M14 melanoma): > 100 µM

SMILES: OC1CCCC2CCC[N-]C12.OC1CCCC2CCC[N-]C12.[O]=[V][OH] (stereo unspecified)
- GI50 (SNB-19 CNS): 53.1 µM
- TGI (SNB-19 CNS): > 100 µM
- GI50 (HCC-2998 colon): 12.7 µM
- TGI (HCC-2998 colon): > 100 µM
- GI50 (HT29 colon): 4.72 µM
- TGI (HT29 colon): > 100 µM
- GI50 (SK-MEL-2 melanoma): 9.96 µM
- TGI (SK-MEL-2 melanoma): 45 µM
- GI50 (MDA-MB-231 breast): 3.55 µM
- TGI (MDA-MB-231 breast): 16.5 µM
- GI50 (A498 renal): 11.6 µM
- TGI (A498 renal): 97.5 µM
- GI50 (HCT-116 colon): 2.66 µM
- TGI (HCT-116 colon): 11.5 µM
- GI50 (M14 melanoma): 2.92 µM
- TGI (M14 melanoma): 14.9 µM
